Molecules are shown by their SMILES. “And” between values parts separate entries of the source, which are not always exact repeats. Equal values may be shown once.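 96-well plates; 48 h exposure; 5 concentrations. Endpoints by linear interpolation between flanking doses. Not reached: highest tested concentration assigned. Here, GI50 denotes the concentration required for 50% inhibition of growth. Definition used: TGI = concentration required for complete inhibition of growth.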

The values below come from PubChem BioAssay (NCI).

Some test systems named below: A549 NSCLC; DU-145 prostate; MCF7 breast; NCI-H226 lung; NCI-H23 lung; NCI-H522 lung; SF-268 CNS; SF-295 CNS; SK-MEL-2 melanoma; SR leukemia.
What all share (assay): DTP human tumour cell line panel, 48 h

Broadly, the GI50 is the concentration giving 50% growth inhibition. As a reminder, the TGI is the concentration at which net growth stops. As for `CCCCCCCCCCCCNC(=O)N[C@H](C(=O)N[C@H]1/C=C/OCCNC(=O)/C=C/[C@H](C(C)C)NC1=O)C(C)C`, the GI50 in the experiment on A549 NSCLC was 32.3 µM; with DU-145 prostate, 14 µM; with MCF7 breast, 0.385 µM; in the experiment on NCI-H226 lung, 4.53 µM; in the experiment on NCI-H23 lung, 0.973 µM; in the experiment with NCI-H522 lung, 0.372 µM. Besides, the GI50 in the experiment with SF-268 CNS is 7.99 µM; in the experiment with SF-295 CNS, 21.4 µM; with SK-MEL-2 melanoma, 4 µM; in the experiment with SR leukemia, 0.393 µM. In addition, the TGI was over 100 µM in the experiment on A549 NSCLC; over 100 µM in the experiment on DU-145 prostate; over 100 µM in the experiment with MCF7 breast; over 19.7 µM with NCI-H226 lung; over 100 µM with NCI-H23 lung; 5.2 µM in the experiment with NCI-H522 lung. For the same compound, the TGI in the experiment with SF-268 CNS was over 100 µM; with SF-295 CNS it was over 100 µM; in the experiment with SK-MEL-2 melanoma it was over 59.2 µM; in the experiment on SR leukemia, 20.9 µM.
For `O=C1Nc2ccc(I)cc2/C1=C/c1cc(Br)c(O)c(Br)c1`, the GI50 in the experiment with A549 NSCLC was > 24.2 µM and 22.7 µM; with DU-145 prostate it was > 23.8 µM and 25 µM; in the experiment on MCF7 breast, > 20.1 µM and 15.4 µM; with NCI-H226 lung, > 25 µM and 27.8 µM; in the experiment with NCI-H23 lung, > 17 µM and 18.1 µM; with NCI-H522 lung, 16.2 µM and 16.5 µM. Also, the GI50 is > 21.9 µM and 18.2 µM in the experiment on SF-268 CNS; > 15.9 µM and 17.2 µM in the experiment on SF-295 CNS; 19.6 µM and 14.7 µM in the experiment on SK-MEL-2 melanoma; over 49.5 µM in the experiment with SR leukemia. Also, the TGI in the experiment on A549 NSCLC was > 25 µM and 97 µM; with DU-145 prostate, over 100 µM; in the experiment with MCF7 breast, over 82.2 µM; with NCI-H226 lung, > 25 µM and 81.2 µM; with NCI-H23 lung it was > 25 µM and 55 µM; with NCI-H522 lung, > 25 µM and 42.3 µM. In addition, the TGI in the experiment on SF-268 CNS is > 25 µM and 68.8 µM; with SF-295 CNS it was over 100 µM; in the experiment with SK-MEL-2 melanoma it was > 25 µM and 37.5 µM; in the experiment with SR leukemia, 98.9 µM.
On to `COc1cccc(-c2cc(-c3ccc(Nc4nc(Nc5ccc(Cl)cc5)nc(Nc5ccc(Cl)cc5)n4)cc3)nc(N)c2C#N)c1`, for which the GI50 in the experiment with A549 NSCLC was 9.41 µM; in the experiment with DU-145 prostate it was 4.58 µM; in the experiment on NCI-H226 lung, 2.16 µM; in the experiment with NCI-H23 lung, 3.59 µM; with NCI-H522 lung it was 1.75 µM; with SF-268 CNS, 2.94 µM. The GI50 is 2.78 µM in the experiment with SF-295 CNS, 1.74 µM in the experiment with SK-MEL-2 melanoma and 0.966 µM in the experiment on SR leukemia. Also, the TGI in the experiment with A549 NSCLC was over 100 µM; in the experiment on DU-145 prostate, 26.1 µM; with MCF7 breast it was 5.84 µM; with NCI-H226 lung it was 5.78 µM; in the experiment with NCI-H23 lung, over 54 µM; in the experiment on NCI-H522 lung it was 4.62 µM. Besides, the TGI in the experiment on SF-268 CNS was determined as 10.2 µM; in the experiment on SF-295 CNS, 10.2 µM; in the experiment on SK-MEL-2 melanoma, 3.65 µM; in the experiment on SR leukemia, 4.22 µM.
On to `C=C(CN1CCc2ccccc2C1)c1ccc(C(=O)Nc2cccc(N)c2)cc1`, for which the GI50 in the experiment on A549 NSCLC is 20.5 µM; in the experiment on DU-145 prostate it was 19 µM; in the experiment on MCF7 breast, 17.5 µM; in the experiment on NCI-H226 lung, 22.3 µM; in the experiment on NCI-H23 lung it was 19.8 µM; in the experiment on NCI-H522 lung, 18 µM. In addition, the GI50 was 19 µM in the experiment on SF-268 CNS, 20 µM with SF-295 CNS, 23.7 µM in the experiment with SK-MEL-2 melanoma and 11.7 µM with SR leukemia. Further, the TGI in the experiment with A549 NSCLC stood at 61.2 µM; with DU-145 prostate it was 44 µM; in the experiment with MCF7 breast, 42.8 µM; in the experiment on NCI-H226 lung, 50.8 µM; in the experiment on NCI-H23 lung, 62.3 µM; in the experiment on NCI-H522 lung it was 40.2 µM. Also, the TGI was determined as 45.9 µM in the experiment on SF-268 CNS, 51.2 µM with SF-295 CNS, 48.4 µM in the experiment on SK-MEL-2 melanoma and 54.8 µM in the experiment with SR leukemia.
As to `CCCN1CCCC(c2ccc(Nc3nc(Nc4cc(F)ccc4C(N)=O)c4cc[nH]c4n3)c(OC)c2)C1` (stereo unspecified), the GI50 with A549 NSCLC was 0.129 µM; in the experiment with DU-145 prostate, 0.802 µM; with MCF7 breast, 0.0137 µM; with NCI-H226 lung, 3.04 µM; in the experiment with NCI-H23 lung, 1.5 µM; with NCI-H522 lung it was 2.85 µM. Moreover, the GI50 was 2.84 µM with SF-268 CNS, 3.42 µM in the experiment with SF-295 CNS, 1.42 µM in the experiment on SK-MEL-2 melanoma and 0.0112 µM in the experiment with SR leukemia. The TGI in the experiment with A549 NSCLC came to 4.16 µM; in the experiment with DU-145 prostate it was 4.74 µM; in the experiment with MCF7 breast it was 3.58 µM; with NCI-H226 lung, 6.68 µM; in the experiment with NCI-H23 lung it was 5.95 µM; in the experiment with NCI-H522 lung it was 6.01 µM. Also, the TGI in the experiment with SF-268 CNS was found to be 6.07 µM; in the experiment on SF-295 CNS it was 7.16 µM; in the experiment on SK-MEL-2 melanoma, 5.26 µM; in the experiment on SR leukemia it was 7.99 µM.
`O=C(/C=C/c1ccccc1)c1ccccn1`: the TGI with A549 NSCLC was 46.1 µM and > 100 µM; in the experiment on DU-145 prostate, 24.8 µM and 40.5 µM; in the experiment on MCF7 breast, 37.1 µM; in the experiment with NCI-H226 lung, 37.5 µM and > 100 µM; with NCI-H23 lung, 33.3 µM and 35.5 µM; in the experiment with NCI-H522 lung, 48.2 µM and 33.2 µM. Also, the TGI in the experiment on SF-268 CNS is 49.8 µM and 43.9 µM; in the experiment on SF-295 CNS it was 33.9 µM and 59.9 µM; with SK-MEL-2 melanoma, 43.8 µM; in the experiment with SR leukemia it was 7.7 µM and 54.6 µM. Besides, the GI50 in the experiment on SF-268 CNS is 18.8 µM and 2.66 µM; with SR leukemia, 1.96 µM and 7.94 µM.
As for `CNC(=S)N/N=C/CSC/C=N/NC(=S)NC`, the GI50 with A549 NSCLC was over 100 µM; in the experiment with DU-145 prostate, over 100 µM; with MCF7 breast it was 1.85 µM; with NCI-H226 lung, over 100 µM; in the experiment with NCI-H23 lung, over 100 µM; in the experiment on NCI-H522 lung it was over 100 µM. For the same compound, the GI50 was over 100 µM with SF-268 CNS, over 100 µM in the experiment with SF-295 CNS, over 100 µM in the experiment with SK-MEL-2 melanoma and 0.799 µM in the experiment with SR leukemia. Further, the TGI in the experiment on A549 NSCLC, in the experiment with DU-145 prostate, in the experiment with MCF7 breast, in the experiment on NCI-H226 lung, in the experiment on NCI-H23 lung and in the experiment with NCI-H522 lung was over 100 µM throughout. Further, the TGI with SF-268 CNS, with SF-295 CNS, in the experiment with SK-MEL-2 melanoma and in the experiment on SR leukemia was over 100 µM throughout.
